For assay [1], the target named is T1, Lethal factor (Bacillus anthracis, UniProt P15917).
T1 sequence (P15917 whole entry): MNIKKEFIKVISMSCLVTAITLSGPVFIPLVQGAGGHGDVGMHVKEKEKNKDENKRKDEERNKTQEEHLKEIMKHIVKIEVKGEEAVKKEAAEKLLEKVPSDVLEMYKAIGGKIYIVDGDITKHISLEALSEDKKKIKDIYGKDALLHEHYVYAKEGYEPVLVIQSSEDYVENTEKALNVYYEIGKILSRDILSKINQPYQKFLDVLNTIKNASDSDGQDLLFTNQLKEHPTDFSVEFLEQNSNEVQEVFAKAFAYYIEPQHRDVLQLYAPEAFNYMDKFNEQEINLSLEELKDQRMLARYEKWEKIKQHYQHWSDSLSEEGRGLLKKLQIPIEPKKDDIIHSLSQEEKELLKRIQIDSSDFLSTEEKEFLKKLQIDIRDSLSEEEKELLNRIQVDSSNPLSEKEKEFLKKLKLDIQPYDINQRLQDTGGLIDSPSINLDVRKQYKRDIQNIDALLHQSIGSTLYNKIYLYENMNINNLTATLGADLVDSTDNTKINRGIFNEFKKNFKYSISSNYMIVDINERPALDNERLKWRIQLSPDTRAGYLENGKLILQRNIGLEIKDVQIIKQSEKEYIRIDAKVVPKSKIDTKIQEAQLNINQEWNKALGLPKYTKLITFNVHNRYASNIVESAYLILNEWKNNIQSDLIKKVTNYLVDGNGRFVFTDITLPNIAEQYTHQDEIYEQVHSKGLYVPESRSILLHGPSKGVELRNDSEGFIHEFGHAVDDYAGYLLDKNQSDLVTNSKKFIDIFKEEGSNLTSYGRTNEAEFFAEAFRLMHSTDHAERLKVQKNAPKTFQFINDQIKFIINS

The target in assay [2] is T1, Lethal factor. The source holds these as a separate data set.
Assay [3] deals with T1, Lethal factor. Nature of the assay: Inhibition of LF.

We go through 50 compounds from ChEMBL document CHEMBL1138106, “The discovery of a potent and selective lethal factor inhibitor for adjunct therapy of anthrax infection” (Bioorg Med Chem Lett, 2006).

By IC50 is commonly meant the point on the concentration scale where inhibition reaches its midpoint. The low end stands for greater potency in that assay, the high end for weaker potency in that assay. For `Cc1cc(S(=O)(=O)N[C@H](CCNC(=O)CN)C(=O)NO)ccc1F`, the IC50 against Lethal factor [1] was 37 nM; on Lethal factor [2], 7400 nM.
Turning to `CC(C)[C@@H](NS(=O)(=O)c1ccc(Cl)s1)C(=O)NO`, the half-inhibitory concentration (IC50) on Lethal factor [1] turned out to be 1310 nM; against Lethal factor [2], 6450 nM.
`CC(C)[C@@H](NS(=O)(=O)c1ccc(F)cc1CO)C(=O)NO`: the 50% inhibitory concentration (IC50) is 1310 nM at Lethal factor [1] and above 20000 nM against Lethal factor [2].
As to `Cc1cc(S(=O)(=O)N[C@H](CC2CC2)C(=O)NO)ccc1F`, the IC50 worked out at 51 nM at Lethal factor [1] and 130 nM at Lethal factor [2].
As to `COc1ccc(S(=O)(=O)N(C)[C@@H](C(=O)NO)C(C)C)cc1`, the IC50 on Lethal factor [2] worked out at 17000 nM.
The compound `COc1ccc(S(=O)(=O)N(CCc2ccsc2)[C@@H](C(=O)NO)C(C)C)cc1` had an IC50 against Lethal factor [1] of 2100 nM.
`CCCCOc1ccc(S(=O)(=O)N[C@@H](C(=O)NO)C(C)C)cc1`: the half-maximal inhibitory concentration (IC50) against Lethal factor [1] is above 40000 nM; against Lethal factor [2], above 20000 nM.
With `Cc1cc(S(=O)(=O)N[C@@H](C(=O)NO)C(C)C)ccc1OCc1ccccc1`, the half-inhibitory concentration (IC50) against Lethal factor [1] was above 40000 nM; against Lethal factor [2], above 20000 nM.
With `Cc1cc(S(=O)(=O)N[C@@H](C(=O)NO)C(C)(C)C)ccc1F`, the IC50 was determined as 300 nM on Lethal factor [1] and 2300 nM against Lethal factor [2].
Regarding `CC[C@H](C)[C@@H](NS(=O)(=O)c1ccc(F)c(C)c1)C(=O)NO`, the IC50 was found to be 67 nM against Lethal factor [1] and 230 nM at Lethal factor [2].
With `Cc1cc(S(=O)(=O)NC(CCc2c[nH]cn2)C(=O)NO)ccc1F` (racemic), the values for the concentration for half-maximal inhibition (IC50) against Lethal factor [1] and on Lethal factor [2] were 75 nM and 2800 nM, respectively.
For `CCCC[C@@H](NS(=O)(=O)c1ccc(F)c(C)c1)C(=O)NO`, the half-maximal inhibitory concentration (IC50) was 70 nM on Lethal factor [1] and 410 nM against Lethal factor [2].
With `CC(=O)N(Cc1cccnc1)[C@@H](C(=O)NO)C(C)C`, the values for the 50% inhibitory concentration (IC50) on Lethal factor [1] and at Lethal factor [2] were above 40000 nM and above 20000 nM, respectively.
`COc1ccc(S(=O)(=O)N[C@@H]2CCN(O)C2=O)cc1`: the IC50 on Lethal factor [1] and on Lethal factor [2] was above 40000 nM in each case.
On to `Cc1ccc(S(=O)(=O)N[C@@H](C(=O)NO)C(C)C)cc1F`, for which the IC50 against Lethal factor [1] is 5180 nM; on Lethal factor [2] it was above 20000 nM.
Consider `Cc1cc(S(=O)(=O)N[C@@H](C(=O)NO)c2ccccc2)ccc1F`, for which the 50% inhibitory concentration (IC50) against Lethal factor [1] was 50 nM; on Lethal factor [2], 370 nM.
The matching figures for `Cc1cc(S(=O)(=O)N[C@H](CCCN=C(N)N)C(=O)NO)ccc1F`: 40 nM and 1700 nM.
As to `Cc1cc(S(=O)(=O)N[C@@H](C(=O)NO)C2CCC2)ccc1F`, the half-maximal inhibitory concentration (IC50) against Lethal factor [1] was 130 nM; on Lethal factor [2] it was 670 nM.
For `CC(C)[C@@H](NS(=O)(=O)c1ccccc1)C(=O)NO`, the IC50 was determined as 1100 nM at Lethal factor [1] and 7800 nM against Lethal factor [2].
On to `COc1ccc(S(=O)(=O)N(Cc2cccnc2)[C@@H](C(=O)NO)C(C)C)cc1.Cl` [CGS-27023A], for which the half-maximal inhibitory concentration (IC50) against Lethal factor [1] was 1200 nM; against Lethal factor [2], 12000 nM; at Lethal factor [3] it was “Active”.
For `CC(C)[C@@H](NS(=O)(=O)c1ccc(F)c2ccccc12)C(=O)NO`, the IC50 worked out at 460 nM on Lethal factor [1] and 2760 nM at Lethal factor [2].
As to `Cc1cc(S(=O)(=O)N[C@H](CCNC(=O)C(C)(C)N)C(=O)NO)ccc1F`, the IC50 came out at 57 nM against Lethal factor [1] and 8700 nM on Lethal factor [2].
The matching figures for `CC(C)[C@@H](NS(=O)(=O)Cc1cccc(Cl)c1)C(=O)NO`: 16600 nM and above 20000 nM.
`CC(C)[C@@H](NS(=O)(=O)c1ccc(Oc2ccccc2)cc1)C(=O)NO`: the IC50 is above 40000 nM against Lethal factor [1] and above 20000 nM at Lethal factor [2].
For `CC[C@@H](NS(=O)(=O)c1ccc(F)c(C)c1)C(=O)NO`, the IC50 is 100 nM against Lethal factor [1] and 490 nM at Lethal factor [2].
The matching figures for `COc1ccc(S(=O)(=O)N(Cc2ccncc2)[C@@H](C(=O)NO)C(C)C)cc1`: 3100 nM and 9500 nM.
The matching figures for `Cc1cc(S(=O)(=O)N[C@@H](C(=O)NO)[C@@H](C)C2CC2)ccc1F`: 65 nM and 460 nM.
Turning to `Cc1cc(S(=O)(=O)N[C@@H](C(=O)NO)[C@H]2CCOC2)ccc1F`, the IC50 against Lethal factor [1] is 120 nM; on Lethal factor [2], 450 nM.
Regarding `Cc1cc(S(=O)(=O)N[C@@H](C(=O)NO)C2CC2)ccc1F`, the half-maximal inhibitory concentration (IC50) against Lethal factor [1] was determined as 120 nM; on Lethal factor [2] it was 730 nM.
As to `Cc1cc(S(=O)(=O)N[C@H](C)C(=O)NO)ccc1F`, the results for the concentration for half-maximal inhibition (IC50) on Lethal factor [1] and against Lethal factor [2] were 130 nM and 2100 nM, respectively.
For the compound `Cc1cc(S(=O)(=O)N[C@@H](C(=O)NO)C2CCCCC2)ccc1F`, the half-maximal inhibitory concentration (IC50) against Lethal factor [1] is 42 nM; at Lethal factor [2] it was 190 nM.
The matching figures for `CC(C)[C@@H](NS(=O)(=O)c1ccc(F)c(CO)c1)C(=O)NO`: 600 nM and 3740 nM.
As to `CC(C)[C@@H](NS(=O)(=O)c1ccc(C(F)(F)F)cc1)C(=O)NO`, the IC50 is above 40000 nM at Lethal factor [1] and above 20000 nM against Lethal factor [2].
The matching figures for `Cc1cccc(S(=O)(=O)N[C@@H](C(=O)NO)C(C)C)c1`: 400 nM and 1290 nM.
Turning to `CC[C@@H](C)[C@@H](NS(=O)(=O)c1ccc(F)c(C)c1)C(=O)NO`, the IC50 against Lethal factor [1] was 67 nM; on Lethal factor [2], 130 nM.
For the compound `Cc1cc(S(=O)(=O)N[C@H](CCOCCN)C(=O)NO)ccc1F`, the IC50 against Lethal factor [1] amounted to 48 nM; at Lethal factor [2], 3500 nM.
For the compound `Cc1cc(S(=O)(=O)N[C@@H](C(=O)NO)C(C)C)ccc1O`, the 50% inhibitory concentration (IC50) was 1640 nM on Lethal factor [1] and above 20000 nM on Lethal factor [2].
As for `CC(C)[C@@H](NS(=O)(=O)c1ccc(-c2cnns2)s1)C(=O)NO`, the results for the IC50 on Lethal factor [1] and against Lethal factor [2] were 810 nM and 10200 nM, respectively.
Regarding `CC(C)[C@@H](NS(=O)(=O)c1ccc(-c2ccccc2)cc1)C(=O)NO`, the IC50 on Lethal factor [1] is above 40000 nM; at Lethal factor [2], above 20000 nM.
As for `Cc1cc(S(=O)(=O)N[C@H](CCNC(=O)[C@H](C)N)C(=O)NO)ccc1F`, the results for the IC50 at Lethal factor [1] and against Lethal factor [2] were 59 nM and 7470 nM, respectively.
As for `Cc1cc(S(=O)(=O)N[C@@H](C(=O)NO)C(C)C)ccc1F`, half-maximal inhibition on Lethal factor [2] (IC50) was put at 120 nM. This counts as sub-micromolar.
As to `Cc1ccc(S(=O)(=O)N[C@@H](C(=O)NO)C(C)C)cc1`, the IC50 was 3000 nM on Lethal factor [1] and 15000 nM against Lethal factor [2].
As to `CC(C)[C@@H](NS(=O)(=O)c1ccc(F)cc1)C(=O)NO`, the results for the IC50 against Lethal factor [1] and against Lethal factor [2] were 290 nM and 3000 nM, respectively.
As to `COc1ccc(S(=O)(=O)N[C@@H](C(=O)NO)C(C)C)cc1`, the values for the half-inhibitory concentration (IC50) on Lethal factor [1] and on Lethal factor [2] were 900 nM and 7300 nM, respectively.
Consider `CC(C)[C@@H](NS(=O)(=O)CC(F)(F)F)C(=O)NO`, for which the IC50 against Lethal factor [1] and against Lethal factor [2] was above 40000 nM in each case.
With `CC(C)[C@@H](NS(=O)(=O)CCc1ccccc1)C(=O)NO`, the 50% inhibitory concentration (IC50) against Lethal factor [1] is 11900 nM; against Lethal factor [2], above 20000 nM.
In the case of `CC(C)[C@@H](NS(=O)(=O)c1cccc(F)c1)C(=O)NO`, the values for the 50% inhibitory concentration (IC50) against Lethal factor [1] and on Lethal factor [2] were 2800 nM and 12400 nM, respectively.
In turn, `COc1ccc(S(=O)(=O)N(CCn2ccnc2)[C@@H](C(=O)NO)C(C)C)cc1` showed an IC50 against Lethal factor [1] of 19100 nM.
Regarding `Cc1cc(S(=O)(=O)N[C@@H](C(=O)NO)C2CCCC2)ccc1F`, the figures for the 50% inhibitory concentration (IC50) at Lethal factor [1] and against Lethal factor [2] were 64 nM and 170 nM, respectively.
Consider `CC(C)[C@@H](NS(=O)(=O)c1ccccc1F)C(=O)NO`, for which the figures for the IC50 on Lethal factor [1] and against Lethal factor [2] were 6600 nM and above 20000 nM, respectively.
